Test results published in publication PMC7806715, “Discovery of small molecules targeting the tandem tudor domain of the epigenetic factor UHRF1 using fragment-based ligand discovery” (Scientific Reports, 2021).
Where a chain is given by its changes, count along the chain named.

Legend:
[1] = target: T1, TTD-PHD S298D mutant vs. H3K9me3 peptide (Homo sapiens, UniProt Q96T88, S298D); assay: TR-FRET assay: TTD-PHD S298D mutant binding to H3K9me3 peptide; format: biochemical; settings: 2.5 mM 2,4-lutidine
T1 construct: made in house; host or cells: E. coli (host printed for TTD-PHD in general: Rosetta (DE3))
T1 sequence (Q96T88 123-366 S298D): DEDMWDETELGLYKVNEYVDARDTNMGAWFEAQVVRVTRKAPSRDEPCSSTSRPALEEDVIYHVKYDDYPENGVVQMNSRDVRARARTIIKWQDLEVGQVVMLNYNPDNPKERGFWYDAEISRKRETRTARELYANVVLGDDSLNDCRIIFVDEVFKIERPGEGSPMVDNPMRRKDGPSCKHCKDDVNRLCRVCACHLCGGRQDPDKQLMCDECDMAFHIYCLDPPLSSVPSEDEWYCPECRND
Protocol: The fragment screen was carried out on low volume 384-well white plates (Corning 4512) and the assay was performed at room temperature. […] After 1 h of incubation, the fluorescent signals at 665 nm and 620 nm of each plate were measured by the Tecan Infinite M1000 plate reader (excitation 340 nm, 60 μs lag time, and 500 μs integration time) and the TR-FRET signal was calculated by the ratio of 665 nm/620 nm fluorescent signal. For the fragment screen, on seven of the library plates there were 32-wells of DMSO control, while there were 8-wells of DMSO control in the last plate. […] The only difference was that the final concentration of […] assay, while the final concentration of His6-UHRF1-FL was 200 nM and biotin-H3K9me3 peptide was 100 nM for the His6-UHRF1-FL TR-FRET assay. The buffer pH was 7.5 for the His6-TTD-PHD and His6-UHRF1-FL assays.

[2] = target: T2, His6-TTD-PHD (aa 123–366) wild type vs. H3K9me3 peptide (Homo sapiens, UniProt Q96T88); assay: TR-FRET assay: His6-TTD-PHD wild type binding to H3K9me3 peptide; format: biochemical
T2 construct: made in house; host or cells: Rosetta (DE3) E. coli, pMCSG7
T2 sequence (Q96T88 123-366): T1 sequence (Q96T88 123-366 S298D) with D176S
Protocol: To test this hypothesis, we generated two TTD-PHD mutants: (1) S298D, which mimics phosphorylation at Ser298 and (2) RR295/296AA, which prevents Arg295 and Arg296 of the TTD-PHD linker from contacting the Arg binding cavity of TTD. […] The fragment screen was carried out on low volume 384-well white plates (Corning 4512) and the assay was performed at room temperature. The TR-FRET reagent mix contained 200 nM of biotinylated-H3K9me3 peptide (Anaspec), 250 nM of His6-TTD, 25 nM of streptavidin-d2 (CisBio), and 1 × anti-6His-Tb cryptate Gold (Cisbio) in TR-FRET buffer (50 mM sodium phosphate, pH 7, 150 mM NaCl, 1 mM DTT, and 0.1% Triton-X-100). During the screen, 5 μl of TR-FRET reagent mix was dispensed into each well, and 100 nl of chemical fragments stock (10 mM in DMSO) was added to each well by pintool using Tecan Freedom Evo liquid handler to make the final compound concentration 196 μM. After 1 h of incubation, the fluorescent signals at 665 nm and 620 nm of each plate were measured by the Tecan Infinite M1000 plate reader (excitation 340 nm, 60 μs lag time, and 500 μs integration time) and the TR-FRET signal was calculated by the ratio of 665 nm/620 nm fluorescent signal. For the fragment screen, on seven of the library plates there were 32-wells of DMSO control, while there were 8-wells of DMSO control in the last plate. The TR-FRET assays for the interactions between His6-TTD-PHD and His6-UHRF1-FL binding to biotinylated-H3K9me3 (1-20) peptide were similar to the assay for His6-TTD. The only difference was that the final concentration of […] assay, while the final concentration of His6-UHRF1-FL was 200 nM and biotin-H3K9me3 peptide was 100 nM for the His6-UHRF1-FL TR-FRET assay. The buffer pH was 7.5 for the His6-TTD-PHD and His6-UHRF1-FL assays. The His6-TTD and His6-TTD-PHD proteins (30 μM) were treated with PKA (P2645, Sigma) at 0.5 U/μl at 30 °C for 1 h in the reaction buffer (50 mM Tris, pH 7.5, 10 mM MgCl2, 0.02% Triton-X-100, 1 mM ATP, 1 mM DTT). The untreated sample was incubated at 30 °C for 1 h in same buffer condition without the addition of PKA. […]

## Cc1ccnc(C)c1 [2,4-lutidine]
[1]
  inhibition of binding to H3K9me3 peptide: 44.5%
[2]; dose-response, side by side with His6-TTD
  inhibition of His6-TTD-PHD interaction with H3K9me3 peptide (in words): only weakly inhibits
[2]; protein treated with PKA and ATP 1 h at 30 °C
  effect of PKA treatment of His6-TTD-PHD on inhibition of H3K9me3 peptide binding (in words): improves the ability
[2]; wild type TTD-PHD, 2.5 mM 2,4-lutidine
  inhibition of binding to H3K9me3 peptide: 7.9%
